Measured values: PMC6934184, “Selective DNA-PKcs inhibition extends the therapeutic index of localized radiotherapy and chemotherapy” (The Journal of Clinical Investigation, 2019)

Biological target: T1, LRRK2 R1441C (Homo sapiens, UniProt Q5S007, R1441C)
T1 construct: purchased Thermo Fisher Scientific (Life Technologies) SelectScreen
Test: SelectScreen Adapta
Type: biochemical
Procedure, shortened: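 NU5455 was profiled across the SelectScreen Broad panel of kinase activity and binding assays. Z'LYTE reactions such as CSF1R ran at apparent Km ATP, while the Adapta CAMK1 assay used ATP listed as 10. Values are given as percent.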

T1 sequence (Q5S007 whole entry R1441C): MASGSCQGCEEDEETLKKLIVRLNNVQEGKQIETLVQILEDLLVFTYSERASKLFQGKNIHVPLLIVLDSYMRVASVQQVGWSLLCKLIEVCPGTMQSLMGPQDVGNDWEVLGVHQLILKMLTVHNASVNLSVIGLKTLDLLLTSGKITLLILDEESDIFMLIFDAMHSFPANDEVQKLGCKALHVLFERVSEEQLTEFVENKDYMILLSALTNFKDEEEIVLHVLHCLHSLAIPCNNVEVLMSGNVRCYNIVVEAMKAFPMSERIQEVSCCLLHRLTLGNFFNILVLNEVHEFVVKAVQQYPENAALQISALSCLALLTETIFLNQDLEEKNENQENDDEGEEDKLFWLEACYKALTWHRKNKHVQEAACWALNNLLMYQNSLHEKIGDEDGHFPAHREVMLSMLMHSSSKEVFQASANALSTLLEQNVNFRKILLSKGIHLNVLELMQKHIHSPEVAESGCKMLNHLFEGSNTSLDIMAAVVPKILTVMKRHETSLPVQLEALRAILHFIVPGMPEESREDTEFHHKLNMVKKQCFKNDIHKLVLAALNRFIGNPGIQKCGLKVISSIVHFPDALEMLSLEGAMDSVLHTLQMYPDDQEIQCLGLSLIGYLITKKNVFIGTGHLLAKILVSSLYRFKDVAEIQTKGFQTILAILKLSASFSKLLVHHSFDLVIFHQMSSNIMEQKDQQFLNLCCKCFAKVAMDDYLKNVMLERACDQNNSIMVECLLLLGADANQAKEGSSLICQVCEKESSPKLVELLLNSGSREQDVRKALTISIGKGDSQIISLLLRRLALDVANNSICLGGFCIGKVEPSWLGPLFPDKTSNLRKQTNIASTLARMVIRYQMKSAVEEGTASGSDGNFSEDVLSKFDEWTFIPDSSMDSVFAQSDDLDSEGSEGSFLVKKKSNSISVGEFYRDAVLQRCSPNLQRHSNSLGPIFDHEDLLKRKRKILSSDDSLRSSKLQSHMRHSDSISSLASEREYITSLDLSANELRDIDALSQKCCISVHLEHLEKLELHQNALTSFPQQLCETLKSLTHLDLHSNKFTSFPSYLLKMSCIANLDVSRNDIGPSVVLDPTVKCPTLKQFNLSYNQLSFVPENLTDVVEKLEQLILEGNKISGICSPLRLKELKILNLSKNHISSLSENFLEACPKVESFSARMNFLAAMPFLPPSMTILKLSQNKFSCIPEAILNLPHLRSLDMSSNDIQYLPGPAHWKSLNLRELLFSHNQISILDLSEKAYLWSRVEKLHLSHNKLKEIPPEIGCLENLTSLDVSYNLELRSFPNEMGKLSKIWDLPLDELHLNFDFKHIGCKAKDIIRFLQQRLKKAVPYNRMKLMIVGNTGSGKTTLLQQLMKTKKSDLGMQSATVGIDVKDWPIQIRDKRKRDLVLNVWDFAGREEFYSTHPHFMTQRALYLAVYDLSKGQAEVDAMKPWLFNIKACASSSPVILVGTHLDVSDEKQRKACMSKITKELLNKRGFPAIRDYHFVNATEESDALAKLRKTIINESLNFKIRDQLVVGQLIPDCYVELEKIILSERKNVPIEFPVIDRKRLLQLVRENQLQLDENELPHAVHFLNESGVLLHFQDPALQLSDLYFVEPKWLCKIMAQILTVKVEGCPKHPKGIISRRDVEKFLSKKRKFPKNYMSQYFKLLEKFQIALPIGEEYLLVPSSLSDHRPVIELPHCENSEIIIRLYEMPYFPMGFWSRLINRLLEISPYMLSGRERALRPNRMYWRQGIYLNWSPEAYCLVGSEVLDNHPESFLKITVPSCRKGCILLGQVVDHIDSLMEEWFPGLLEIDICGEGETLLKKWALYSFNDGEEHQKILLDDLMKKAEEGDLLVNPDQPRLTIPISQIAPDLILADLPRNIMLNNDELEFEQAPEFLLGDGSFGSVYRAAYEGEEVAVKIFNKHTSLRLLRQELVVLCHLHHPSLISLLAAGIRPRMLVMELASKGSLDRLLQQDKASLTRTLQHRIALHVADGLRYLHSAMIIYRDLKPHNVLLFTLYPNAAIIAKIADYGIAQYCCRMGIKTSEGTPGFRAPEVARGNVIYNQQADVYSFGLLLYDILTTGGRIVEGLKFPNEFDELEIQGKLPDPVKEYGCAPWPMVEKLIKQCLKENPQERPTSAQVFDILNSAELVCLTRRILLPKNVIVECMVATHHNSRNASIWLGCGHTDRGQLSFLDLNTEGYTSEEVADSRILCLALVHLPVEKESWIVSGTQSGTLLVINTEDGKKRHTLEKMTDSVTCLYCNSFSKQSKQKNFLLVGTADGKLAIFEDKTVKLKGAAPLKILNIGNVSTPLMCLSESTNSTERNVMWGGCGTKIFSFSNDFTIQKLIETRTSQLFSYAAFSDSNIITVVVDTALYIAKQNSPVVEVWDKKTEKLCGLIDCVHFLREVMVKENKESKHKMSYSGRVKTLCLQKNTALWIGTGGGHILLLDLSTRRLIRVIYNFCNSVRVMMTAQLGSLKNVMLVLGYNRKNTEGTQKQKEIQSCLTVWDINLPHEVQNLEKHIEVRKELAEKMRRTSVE

Molecule `CN(C(=O)CN1CCOCC1)c1ccc2sc3c(-c4cccc5c(=O)cc(N6CC7CCC(C6)O7)oc45)cccc3c2c1` [NU5455] has an inhibition at 1 µM of 1.8%.
